Assay results taken from patent publication US20160108098A1, “THERAPEUTIC PEPTIDES” (GLAXOSMITHKLINE INTELLECTUAL PROPERTY DEVELOPMENT LIMITED, priority 2013, published 2016).
Where no end group is shown, it is not given here.

How the values were obtained:
[1] = cumulative food intake, lean mice (Model A), BioDaQ system; type: in vivo; conditions: lean C57BL/6 mice, 1 mg/kg subcutaneously, cumulative food intake after 6 h, relative to vehicle controls
Procedure: Cumulative food intake after 6 h was determined for the PYY analogs in either lean (Model A) or diet-induced obese (DIO) (Model B) C57BL/6 mice in a BioDaQ system for continuous monitoring of food intake (Research Diets Inc., New Brunswick, N.J.). […] Mice were placed singly into the BioDaQ cages and acclimatized for a minimum of 6 days and were allowed ad libitum access to food and water. Approximately 1 hour prior to lights-out, animals were dosed subcutaneously with either vehicle (20 mM Acetate buffer, pH 4.9 or 20% DMSO in water) or analogs dissolved in vehicle (1 mg/kg) (8 animals per group). Once all animals have been dosed, feeder gates were opened providing ad-libitum access to food. Continuous food intake was monitored and collected for 15 hours. […] P-values<0.05 were considered to indicate a significant difference between treatment groups.

[2] = biological target: T1, human Neuropeptide Y receptor type 2 (Homo sapiens, UniProt P49146); assay: melanophore assay, potency at the human Neuropeptide Y receptor type 2; type: cell-based; conditions: read-out: hNPY Y2 pEC50 (converted)
T1 construct: expressed in transfected cells; host or cells: melanophores; own knowledge: in the cited Jayawickreme protocol these are Xenopus laevis melanophores transfected with the receptor
T1 sequence (P49146 1-381): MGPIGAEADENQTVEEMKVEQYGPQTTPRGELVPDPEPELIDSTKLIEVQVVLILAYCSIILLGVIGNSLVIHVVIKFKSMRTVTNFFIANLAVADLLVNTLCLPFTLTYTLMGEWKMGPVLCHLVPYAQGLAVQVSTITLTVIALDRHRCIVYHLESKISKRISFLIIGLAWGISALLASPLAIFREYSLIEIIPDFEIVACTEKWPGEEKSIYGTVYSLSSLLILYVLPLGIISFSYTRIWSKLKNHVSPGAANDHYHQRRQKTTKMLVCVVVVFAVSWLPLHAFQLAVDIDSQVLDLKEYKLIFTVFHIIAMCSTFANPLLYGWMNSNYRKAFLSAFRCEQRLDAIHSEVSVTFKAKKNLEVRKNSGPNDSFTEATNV

Row | EC50 [2] | Molecule | % change in food intake vs vehicle, model A [1]
1 |  | CC(C)C[C@H](NC(=O)[C@H](CC(=O)O)NC(=O)[C@H](C)NC(=O)[C@H](Cc1ccc(O)cc1)NC(=O)[C@H](Cc1ccc(O)cc1)NC(=O)[C@H](CCCNC(=N)N)NC(=O)[C@H](CC(N)=O)NC(=O)[C@H](Cc1c[nH]c2ccccc12)NC(=O)[C@H](CCC(=O)O)NC(=O)[C@H](CCC(=O)O)NC(=O)[C@@H]1CCCN1C(=O)[C@H](CO)NC(=O)[C@H](C)NC(=O)[C@H](CC(=O)O)NC(=O)[C@H](CCCCN)NC(=O)CNC(=O)[C@@H]1CCCN1C(=O)[C@H](C)NC(=O)[C@H](CCC(=O)O)NC(=O)[C@@H]1CCCN1C(=O)[C@H](CCCCN)NC(=O)[C@@H]1CCCN1)C(=O)N[C@@H](CCCNC(=N)N)C(=O)N[C@@H](CCCCN)C(=O)N[C@@H](Cc1ccc(O)cc1)C(=O)N[C@@H](CC(C)C)C(=O)N[C@@H](CC(N)=O)C(=O)N[C@@H](Cc1c[nH]c2ccccc12)C(=O)N[C@@H](CC(C)C)C(=O)N[C@H](C(=O)N[C@@H](CCCNC(=N)N)C(=O)N[C@@H](CCC(N)=O)C(=O)N[C@@H](CCCNC(=N)N)C(=O)N[C@@H](Cc1ccc(O)cc1)C(N)=O)[C@@H](C)O [Example 4] | −83%
2 |  | PEPEHPGCDASPEDQNKYHASLRKYLNWVTRQRY-NH2 [Peptide 10] | -21%
3 | 0.158 nM | CC(C)C[C@H](NC(=O)[C@H](CO)NC(=O)[C@H](C)NC(=O)[C@H](Cc1ccc(O)cc1)NC(=O)[C@H](Cc1ccc(O)cc1)NC(=O)[C@H](CCCNC(=N)N)NC(=O)[C@H](CC(N)=O)NC(=O)[C@H](CC(C)C)NC(=O)[C@H](CCC(=O)O)NC(=O)[C@H](CCC(=O)O)NC(=O)[C@@H]1CCCN1C(=O)[C@H](CO)NC(=O)[C@H](C)NC(=O)[C@H](CC(=O)O)NC(=O)[C@H](CCCCN)NC(=O)CNC(=O)[C@@H]1CCCN1C(=O)[C@H](C)NC(=O)[C@H](CCC(=O)O)NC(=O)[C@@H]1CCCN1C(=O)[C@H](CCCCN)NC(=O)[C@@H]1CCCN1)C(=O)N[C@@H](CCCNC(=N)N)C(=O)N[C@@H](CCCCN)C(=O)N[C@@H](Cc1ccc(O)cc1)C(=O)N[C@@H](CC(C)C)C(=O)N[C@@H](CC(N)=O)C(=O)N[C@@H](Cc1c[nH]c2ccccc12)C(=O)N[C@@H](CC(C)C)C(=O)N[C@H](C(=O)N[C@@H](CCCNC(=N)N)C(=O)N[C@@H](CCC(N)=O)C(=O)N[C@@H](CCCNC(=N)N)C(=O)N[C@@H](Cc1ccc(O)cc1)C(N)=O)[C@@H](C)O [Example 2] | −50%
4 | 2.51 nM | H-IKPEAPLSKQLEEEAVRYYASLRHYLNLVTRQRY-NH2 [Peptide 2] | -12%
5 | 6.31 nM | PKPEAPGCDASPEEWNRYYASLRKYLNWVTRQHY-NH2 [Peptide 14] | 24%
6 | 0.02 nM | CC(C)C[C@H](NC(=O)[C@H](CC(=O)O)NC(=O)[C@H](C)NC(=O)[C@H](Cc1ccc(O)cc1)NC(=O)[C@H](Cc1ccc(O)cc1)NC(=O)[C@H](CCCNC(=N)N)NC(=O)[C@H](CC(N)=O)NC(=O)[C@H](Cc1c[nH]c2ccccc12)NC(=O)[C@H](CCC(=O)O)NC(=O)[C@H](CCC(=O)O)NC(=O)[C@@H]1CCCN1C(=O)[C@H](CO)NC(=O)[C@H](C)NC(=O)[C@H](CC(=O)O)NC(=O)[C@H](CCCCN)NC(=O)CNC(=O)[C@@H]1CCCN1C(=O)[C@H](C)NC(=O)[C@H](CCC(=O)O)NC(=O)[C@@H]1CCCN1C(=O)[C@H](CCCCN)NC(=O)[C@@H]1CCCN1)C(=O)N[C@@H](CCCNC(=N)N)C(=O)N[C@@H](CCCCN)C(=O)N[C@@H](Cc1ccc(O)cc1)C(=O)N[C@@H](CC(C)C)C(=O)N[C@@H](CC(N)=O)C(=O)N[C@@H](Cc1c[nH]c2ccccc12)C(=O)N[C@H](C(=O)N[C@H](C(=O)N[C@@H](CCCNC(=N)N)C(=O)N[C@@H](CCC(N)=O)C(=O)N[C@@H](CCCNC(=N)N)C(=O)N[C@@H](Cc1ccc(O)cc1)C(N)=O)[C@@H](C)O)C(C)C [Example 8] | −74%
7 | 0.0398 nM | CC(C)C[C@H](NC(=O)[C@H](CO)NC(=O)[C@H](C)NC(=O)[C@H](Cc1ccc(O)cc1)NC(=O)[C@H](Cc1ccc(O)cc1)NC(=O)[C@H](CCCNC(=N)N)NC(=O)[C@H](CC(N)=O)NC(=O)[C@H](Cc1c[nH]c2ccccc12)NC(=O)[C@H](CCC(=O)O)NC(=O)[C@H](CCC(=O)O)NC(=O)[C@@H]1CCCN1C(=O)[C@H](CO)NC(=O)[C@H](C)NC(=O)[C@H](CC(=O)O)NC(=O)[C@H](CCCCN)NC(=O)CNC(=O)[C@@H]1CCCN1C(=O)[C@H](C)NC(=O)[C@H](CCC(=O)O)NC(=O)[C@@H]1CCCN1C(=O)[C@H](CCCCN)NC(=O)[C@@H]1CCCN1)C(=O)N[C@@H](CCCNC(=N)N)C(=O)N[C@@H](CCCCN)C(=O)N[C@@H](Cc1ccc(O)cc1)C(=O)N[C@@H](CC(C)C)C(=O)N[C@@H](CC(N)=O)C(=O)N[C@@H](Cc1c[nH]c2ccccc12)C(=O)N[C@H](C(=O)N[C@H](C(=O)N[C@@H](CCCNC(=N)N)C(=O)N[C@@H](CCC(N)=O)C(=O)N[C@@H](CCCNC(=N)N)C(=O)N[C@@H](Cc1ccc(O)cc1)C(N)=O)[C@@H](C)O)C(C)C [Example 10] | −88%
8 | 0.501 nM | CC[C@H](C)[C@H](N)C(=O)N[C@@H](CCCCN)C(=O)N1CCC[C@H]1C(=O)N1CCC[C@H]1C(=O)N[C@@H](Cc1ccc(O)cc1)C(=O)N1CCC[C@H]1C(=O)NCC(=O)N[C@@H](CS)C(=O)N[C@@H](CC(=O)O)C(=O)N[C@@H](C)C(=O)N[C@@H](CO)C(=O)N1CCC[C@H]1C(=O)N[C@@H](CCC(=O)O)C(=O)N[C@@H](CCC(=O)O)C(=O)N[C@@H](CCC(N)=O)C(=O)N[C@@H](CC(N)=O)C(=O)N[C@@H](CCCCN)C(=O)N[C@@H](Cc1ccc(O)cc1)C(=O)N[C@@H](Cc1ccc(O)cc1)C(=O)N[C@@H](C)C(=O)N[C@@H](CO)C(=O)N[C@@H](CC(C)C)C(=O)N[C@@H](CCCNC(=N)N)C(=O)N[C@@H](C)C(=O)N[C@@H](Cc1ccc(O)cc1)C(=O)N[C@@H](Cc1c[nH]c2ccccc12)C(=O)N[C@@H](CC(N)=O)C(=O)N[C@@H](CC(C)C)C(=O)N[C@H](C(=O)N[C@H](C(=O)N[C@@H](CCCNC(=N)N)C(=O)N[C@@H](CCC(N)=O)C(=O)N[C@@H](CCCNC(=N)N)C(=O)N[C@@H](Cc1ccc(O)cc1)C(N)=O)[C@@H](C)O)C(C)C [Peptide 8] | -19%
9 | 0.0794 nM | CC(C)C[C@H](NC(=O)[C@H](CO)NC(=O)[C@H](C)NC(=O)[C@H](Cc1ccc(O)cc1)NC(=O)[C@H](Cc1ccc(O)cc1)NC(=O)[C@H](CCCNC(=N)N)NC(=O)[C@H](CC(N)=O)NC(=O)[C@H](Cc1c[nH]c2ccccc12)NC(=O)[C@H](CCC(=O)O)NC(=O)[C@H](CCC(=O)O)NC(=O)[C@@H]1CCCN1C(=O)[C@H](CO)NC(=O)[C@H](C)NC(=O)[C@H](CC(=O)O)NC(=O)[C@H](CCCCN)NC(=O)CNC(=O)[C@@H]1CCCN1C(=O)[C@H](C)NC(=O)[C@H](CCC(=O)O)NC(=O)[C@@H]1CCCN1C(=O)[C@H](CCCCN)NC(=O)[C@@H]1CCCN1)C(=O)N[C@@H](CCCNC(=N)N)C(=O)N[C@@H](CCCCN)C(=O)N[C@@H](Cc1ccc(O)cc1)C(=O)N[C@@H](CC(C)C)C(=O)N[C@@H](CC(N)=O)C(=O)N[C@@H](Cc1c[nH]c2ccccc12)C(=O)N[C@@H](CC(C)C)C(=O)N[C@H](C(=O)N[C@@H](CCCNC(=N)N)C(=O)N[C@@H](CCC(N)=O)C(=O)N[C@@H](CCCNC(=N)N)C(=O)N[C@@H](Cc1ccc(O)cc1)C(N)=O)[C@@H](C)O [Example 6] | −88%
10 | 2 nM | H-PKPEAPLSKQLEEEAVRYYASLRHYLNLVTRQRY-NH2 [Peptide 21] | -2%
11 | 12.6 nM | H-PKPEAPGCDASPEEWNRYYASLRKYLNWVTRQNY-NH2 [Peptide 1] | 5%
12 | 1.26 nM | PKPVAPGCDASPAELNRQYSDLRNYWNLVTRQRY-NH2 [Peptide 15] | -17%
13 | 0.631 nM | H-PKPEAPGEDASPKEWNRYYASLRKYLNWVTRQRY-NH2 [Peptide 3] | -30%
14 | 0.158 nM | CC(C)C[C@H](NC(=O)[C@H](CO)NC(=O)[C@H](C)NC(=O)[C@H](Cc1ccc(O)cc1)NC(=O)[C@H](Cc1ccc(O)cc1)NC(=O)[C@H](CCCNC(=N)N)NC(=O)[C@H](CC(N)=O)NC(=O)[C@H](CC(C)C)NC(=O)[C@H](CCC(=O)O)NC(=O)[C@H](CCC(=O)O)NC(=O)[C@@H]1CCCN1C(=O)[C@H](CO)NC(=O)[C@H](C)NC(=O)[C@H](CC(=O)O)NC(=O)[C@H](CCCCN)NC(=O)CNC(=O)[C@@H]1CCCN1C(=O)[C@H](C)NC(=O)[C@H](CCC(=O)O)NC(=O)[C@@H]1CCCN1C(=O)[C@H](CCCCN)NC(=O)[C@@H]1CCCN1)C(=O)N[C@@H](CCCNC(=N)N)C(=O)N[C@@H](CCCCN)C(=O)N[C@@H](Cc1ccc(O)cc1)C(=O)N[C@@H](CC(C)C)C(=O)N[C@@H](CC(N)=O)C(=O)N[C@@H](Cc1c[nH]c2ccccc12)C(=O)N[C@H](C(=O)N[C@H](C(=O)N[C@@H](CCCNC(=N)N)C(=O)N[C@@H](CCC(N)=O)C(=O)N[C@@H](CCCNC(=N)N)C(=O)N[C@@H](Cc1ccc(O)cc1)C(N)=O)[C@@H](C)O)C(C)C [Example 31] | −59%
15 |  | H-PQPESPEGNASPEDWACYHAAVRHYVNLITRQRY-NH2 [Peptide 18] | -17%
